Like-named read-outs stand apart in the source and are kept apart here.
Tests used:
[1] = tested on: NCI-H929 human multiple myeloma tumor cell line; experiment: NCI-H929 cell viability assay (CellTiter-Glo, 24 hours); format: cell-based
[2] = tested on: AMO-1 human multiple myeloma tumor cell line; experiment: AMO-1 cell viability assay (CellTiter-Glo, 24 hours); format: cell-based
GST-MCL-1 = GST-MCL-1 (Homo sapiens, UniProt Q07820); experiment: TR-FRET MCL-1 binding assay (competition with probe F-Bak)
Chain of GST-MCL-1 (Q07820 whole entry): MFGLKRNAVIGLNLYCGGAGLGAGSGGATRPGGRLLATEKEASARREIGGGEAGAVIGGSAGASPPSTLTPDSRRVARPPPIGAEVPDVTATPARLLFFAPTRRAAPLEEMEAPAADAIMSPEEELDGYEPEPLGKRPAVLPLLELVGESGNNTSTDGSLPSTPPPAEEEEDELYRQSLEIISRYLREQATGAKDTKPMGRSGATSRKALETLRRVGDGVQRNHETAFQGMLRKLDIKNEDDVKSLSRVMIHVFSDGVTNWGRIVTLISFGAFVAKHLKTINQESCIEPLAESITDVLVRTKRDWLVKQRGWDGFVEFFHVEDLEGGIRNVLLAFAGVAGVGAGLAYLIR
In short: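 Test compounds, 11 three-fold dilutions from 25 μM final, incubated 2 hours at room temperature with GST-MCL-1, F-Bak probe and Tb-anti-GST antibody. TR-FRET read at 340/35 nm excitation with 520/525 and 495/510 nm emission. Run without human serum and with 10% HS.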

[3] = Homo sapiens, NCI-H929, 24 h, read-out: H929 Viability IC50 (μM, 10% FBS), 10% FBS, 24 hours of compound treatment
[4] = Homo sapiens, AMO1, 24 h, read-out: AMO-1 Viability IC50 (μM, 10% FBS), 10% FBS, 24 hours of compound treatment
[5] = MCL-1 Binding Ki (nM, 10% HS), in the presence of 10% HS (human serum)
[6] = without HS, read-out: MCL-1 Binding Ki

Row | SMILES | IC50 [1, 3] [µM] | IC50 [2, 4] [µM] | Ki (GST-MCL-1; [5]) [nM] | Ki (GST-MCL-1; [6]) [nM] | IC50 ([1]; read-out: H929 Viability IC50 (μM, 10% FBS), 10% FBS, 24 hours of compound treatment) [µM] | IC50 ([2]; read-out: AMO-1 Viability IC50 (μM, 10% FBS), 10% FBS, 24 hours of compound treatment) [µM]
1 | COCCOCCOCCOCCOCCOCC1(F)CC=C(c2nccc(COc3ccc4cc3C[C@H](C(=O)O)Oc3ncnc5sc(-c6ccc(F)cc6)c(c35)-c3c(C)c(Cl)c(c(Cl)c3C)O[C@H](CN3CCN(C)CC3)CO4)n2)CC1 (single isomer, unassigned) [Example 97, (7R,16R)-19,23-dichloro-10-({2-[(4S*)-4-fluoro-4-(2,5,8,11,14,17-hexaoxaoctadecan-1-yl)cyclohex-1-en-1-yl]pyrimidin-4-yl}methoxy)-1-(4-fluorophenyl)-20,22-dimethyl-16-[(4-methylpiperazin-1-yl)methyl]-7,8,15,16-tetrahydro-18,21-etheno-13,9-(metheno)-6,14,17-trioxa-2-thia-3,5-diazacyclononadeca[1,2,3-cd]indene-7-carboxylic Acid] | 0.000482 | 0.0006 | 0.137 | 0.016 |  | 
2 | COCCOCCOCCOCCOCCO[C@H]1CC[C@H](c2nccc(COc3ccc4cc3C[C@H](C(=O)O)Oc3ncnc5sc(-c6ccc(F)cc6)c(c35)-c3c(C)c(Cl)c(c(Cl)c3C)O[C@H](CN3CCN(C)CC3)CO4)n2)CC1 [Example 66, (7R,16R)-19,23-dichloro-1-(4-fluorophenyl)-20,22-dimethyl-16-[(4-methylpiperazin-1-yl)methyl]-10-[(2-{(1r,4r)-4-[(2,5,8,11,14-pentaoxahexadecan-16-yl)oxy]cyclohexyl}pyrimidin-4-yl)methoxy]-7,8,15,16-tetrahydro-18,21-etheno-13,9-(metheno)-6,14,17-trioxa-2-thia-3,5-diazacyclononadeca[1,2,3-cd]indene-7-carboxylic Acid] | 0.00121 | 0.000876 | 0.119 | 0.015 |  | 
3 | COCCOCCOCCOCCCN1CCN(c2nccc(COc3ccc4cc3C[C@H](C(=O)O)Oc3ncnc5sc(-c6ccc(F)cc6)c(c35)-c3c(C)c(Cl)c(c(Cl)c3C)O[C@H](CN3CCN(C)CC3)CO4)n2)CC1 [Example 53, (7R,16R)-19,23-dichloro-1-(4-fluorophenyl)-20,22-dimethyl-16-[(4-methylpiperazin-1-yl)methyl]-10-({2-[4-(2,5,8,11-tetraoxatetradecan-14-yl)piperazin-1-yl]pyrimidin-4-yl}methoxy)-7,8,15,16-tetrahydro-18,21-etheno-13,9-(metheno)-6,14,17-trioxa-2-thia-3,5-diazacyclononadeca[1,2,3-cd]indene-7-carboxylic Acid] | 0.00571 | 0.0042 | 0.632 | 0.301 |  | 
4 | COCCOCCOCCOc1ccc(-c2nccc(COc3ccc4cc3C[C@H](C(=O)O)Oc3ncnc5sc(C6CCCCC6)c(c35)-c3c(C)c(Cl)c(c(Cl)c3C)O[C@H](CN3CCN(C)CC3)CO4)n2)cc1 [Example 90, (7R,16R)-19,23-dichloro-1-cyclohexyl-10-{[2-(4-{2-[2-(2-methoxyethoxy)ethoxy]ethoxy}phenyl)pyrimidin-4-yl]methoxy}-20,22-dimethyl-16-[(4-methylpiperazin-1-yl)methyl]-7,8,15,16-tetrahydro-18,21-etheno-13,9-(metheno)-6,14,17-trioxa-2-thia-3,5-diazacyclononadeca[1,2,3-cd]indene-7-carboxylic Acid] | 0.000787 | 0.000183 | 3.41 | 0.044 |  | 
5 | COC[C@@H](COc1ccc(-c2nccc(COc3ccc4cc3C[C@H](C(=O)O)Oc3ncnc5sc(-c6ccc(F)cc6)c(c35)-c3c(C)c(Cl)c(c(Cl)c3C)O[C@H](CN3CCN(C)CC3)CO4)n2)cc1)OC [Example 136, (7R,16R)-19,23-dichloro-10-[(2-{4-[(25)-2,3-dimethoxypropoxy]phenyl}pyrimidin-4-yl)methoxy]-1-(4-fluorophenyl)-20,22-dimethyl-16-[(4-methylpiperazin-1-yl)methyl]-7,8,15,16-tetrahydro-18,21-etheno-9,13-(metheno)-6,14,17-trioxa-2-thia-3,5-diazacyclononadeca[1,2,3-cd]indene-7-carboxylic acid] | 0.000392 | 0.000403 | 0.758 | 0.027 |  | 
6 | Cc1c(Cl)c2c(Cl)c(C)c1-c1c(-c3ccc(F)cc3)sc3ncnc(c13)O[C@@H](C(=O)O)Cc1cc(ccc1OCc1ccnc(-c3ccc(S(C)(=N)=O)cc3)n1)OC[C@@H](CN1CCN(C)CC1)O2 (stereo partly drawn) [Example 30, (7R,16R)-19,23-dichloro-1-(4-fluorophenyl)-10-({2-[4-(S-methanesulfonimidoyl)phenyl]pyrimidin-4-yl}methoxy)-20,22-dimethyl-16-[(4-methylpiperazin-1-yl)methyl]-7,8,15,16-tetrahydro-18,21-etheno-13,9-(metheno)-6,14,17-trioxa-2-thia-3,5-diazacyclononadeca[1,2,3-cd]indene-7-carboxylic Acid] | 0.00356 | 0.00277 | 0.252 | 0.033 |  | 
7 | COCCOCCOCCOCCOCCOCCOCCOCCOCCOCCOCCNC(=O)c1ccc(-c2nccc(COc3ccc4cc3C[C@H](C(=O)O)Oc3ncnc5sc(-c6ccc(F)cc6)c(c35)-c3c(C)c(Cl)c(c(Cl)c3C)O[C@H](CN3CCN(C)CC3)CO4)n2)cc1 [Example 47, (7R,16R)-19,23-dichloro-1-(4-fluorophenyl)-20,22-dimethyl-16-[(4-methylpiperazin-1-yl)methyl]-10-[(2-{4-[(2,5,8,11,14,17,20,23,26,29,32-undecaoxatetratriacontan-34-yl)carbamoyl]phenyl}pyrimidin-4-yl)methoxy]-7,8,15,6-tetrahydro-18,21-etheno-13,9-(metheno)-6,14,17-trioxa-2-thia-3,5-diazacyclononadeca[1,2,3-cd]indene-7-carboxylic Acid] | 0.0205 | 0.0182 | 3.12 | 0.018 |  | 
8 | COCCOCCOCCOCCOC1(c2nccc(COc3ccc4cc3C[C@H](C(=O)O)Oc3ncnc5sc(-c6ccc(F)cc6)c(c35)-c3c(C)c(Cl)c(c(Cl)c3C)O[C@H](CN3CCN(C)CC3)CO4)n2)CCC1 [Example 64, (7R,16R)-19,23-dichloro-1-(4-fluorophenyl)-20,22-dimethyl-16-[(4-methylpiperazin-1-yl)methyl]-10-[(2-{1-[(2,5,8,11-tetraoxatridecan-13-yl)oxy]cyclobutyl}pyrimidin-4-yl)methoxy]-7,8,15,16-tetrahydro-18,21-etheno-9,13-(metheno)-6,14,17-trioxa-2-thia-3,5-diazacyclononadeca[1,2,3-cd]indene-7-carboxylic Acid] | 0.00243 | 0.00163 | 0.167 | 0.038 |  | 
9 | COCCOCCOCCOCC1(C)CC=C(c2nccc(COc3ccc4cc3C[C@H](C(=O)O)Oc3ncnc5sc(-c6ccc(F)cc6)c(c35)-c3c(C)c(Cl)c(c(Cl)c3C)O[C@H](CN3CCN(C)CC3)CO4)n2)CC1 (single isomer, unassigned) [Example 119, (7R,16R)-19,23-dichloro-1-(4-fluorophenyl)-20,22-dimethyl-16-[(4-methylpiperazin-1-yl)methyl]-10-({2-[(4S*)-4-methyl-4-(2,5,8,11-tetraoxadodecan-1-yl)cyclohex-1-en-1-yl]pyrimidin-4-yl}methoxy)-7,8,15,16-tetrahydro-18,21-etheno-13,9-(metheno)-6,14,17-trioxa-2-thia-3,5-diazacyclononadeca[1,2,3-cd]indene-7-carboxylic Acid] |  |  | 0.16 | 0.004 | 0.000333 | 0.000181
10 | COCC(COC)Oc1nccc(COc2ccc3cc2C[C@H](C(=O)O)Oc2ncnc4sc(-c5ccc(F)cc5)c(c24)-c2c(C)c(Cl)c(c(Cl)c2C)O[C@H](CN2CCN(C)CC2)CO3)n1 [Example 141, (7R,16R)-19,23-dichloro-10-({2-[(1,3-dimethoxypropan-2-yl)oxy]pyrimidin-4-yl}methoxy)-1-(4-fluorophenyl)-20,22-dimethyl-16-[(4-methylpiperazin-1-yl)methyl]-7,8,15,16-tetrahydro-18,21-etheno-9,13-(metheno)-6,14,17-trioxa-2-thia-3,5-diazacyclononadeca[1,2,3-cd]indene-7-carboxylic Acid] | 0.000503 | 0.000441 | 0.363 | 0.008 |  | 
11 | Cc1c(Cl)c2c(Cl)c(C)c1-c1c(-c3ccc(F)cc3)sc3ncnc(c13)O[C@@H](C(=O)O)Cc1cc(ccc1OCc1ccnc(-c3ccc(O[C@H]4CO[C@H]5[C@@H]4OC[C@H]5O)cc3)n1)OC[C@@H](CN1CCN(C)CC1)O2 [Example 161, (7R,16R)-19,23-dichloro-1-(4-fluorophenyl)-10-{[2-(4-{[(3S,3aR,6R,6aR)-6-hydroxyhexahydrofuro[3,2-b]furan-3-yl]oxy}phenyl)pyrimidin-4-yl]methoxy}-20,22-dimethyl-16-[(4-methylpiperazin-1-yl)methyl]-7,8,15,16-tetrahydro-18,21-etheno-13,9-(metheno)-6,14,17-trioxa-2-thia-3,5-diazacyclononadeca[1,2,3-cd]indene-7-carboxylic Acid] | 0.000502 | 0.000262 | 0.141 | 0.002 |  | 

Source: US20250313572A1, “MACROCYCLIC MCL-1 INHIBITORS AND METHODS OF USE” (AbbVie Inc., priority 2017, published 2025)
